Assay [1] relates to Influenza strains A/WSN/33 (H1N1). As to the kind of experiment: Influenza A/WSN/33 (H1N1) antiviral assay in A549 cells (MUNANA neuraminidase readout). Format: cell-based, Influenza A virus (H1N1); human lung carcinoma A549 cells. The conditions noted are these: Influenza A virus, compound 24 h before infection, 250 IU/well, 20 h infection. Here is the method: (§1) EC50 [uM] as Measured Using Two Cell Lines: WSN/33 (H1N1) A549 and MDCK
1. Human lung carcinoma A549 cells (ATCC, Manassas, VA) were plated at a density of 5×10^4 cells/ml (5×10^3 cells/well) in maintenance media (Ham's F12 media supplemented with 10% FBS, 1% penicillin/streptomycin, 1% HEPES, 1% Glutamine and 1% non-essential amino acids (all Mediatech, Manassas, VA) in 96-well plates. After 24 hours, serially diluted compounds in assay media (Ham's F12 supplemented with 0.3FBS, 1% penicillin/streptomycin, 1% HEPES, 1% Glutamine and 1% non-essential amino acids) were added to cells and incubated for an additional 24 hours. Cells were infected with 250 IU/well of Influenza strains A/WSN/33 (H1N1) (Virapur, San Diego CA) and incubated for 20 h at 37° C., 5% CO2. The cell culture supernatant was aspirated off and 50 μl 25 μM 2′-(4-Methylumbelliferyl)-a-D-N-acetylneuraminic acid (MUNANA, Sigma-Aldrich) dissolved in 33 mM MES, pH 6.5 (Emerald Biosystems, Bainbridge Island, WA) was added to the cells. After incubation for 45 min at 30° C., reactions were stopped by addition of 150 μL stop solution (100 mM glycine, pH 10.5, 25% ethanol, all Sigma-Aldrich). Fluorescence was measured with excitation and emission filters of 355 and 460 nm, respectively, on a Victor X3 multi-label plate reader (Perkin Elmer, Waltham, MA). Cytotoxicity of uninfected parallel cultures was determined by addition of 100 μL CellTiter-Glo® reagent (Promega, Madison, WI), and incubation for 10 min at room temperature. Luminescence was measured on a Victor X3 multi-label plate reader.

Assay [2] has the same test system. Put plainly: Influenza A/WSN/33 (H1N1) antiviral assay in MDCK cells (MUNANA neuraminidase readout). The conditions noted are these: Influenza A virus, in Canis lupus familiaris, compound 24 h before infection, 250 IU/well, 20 h infection. Format: cell-based. Here is the method:
as §1
2. Alternatively, Madin-Darby canine kidney epithelial cells (MDCK, ATCC), were plated at a density of 7.5×10^4 cells/ml (7.5×10^3 cells/well) in maintenance media (DMEM with same supplements as above) in 96-well plates. After 24 hours, serially diluted compounds in assay media (MEM supplemented with 0.3FBS, 1% penicillin/streptomycin, 1% HEPES, 1% Glutamine and 1% non-essential amino acids) were added to cells and incubated for an additional 24 hours. Cells were infected with 250 IU/well of Influenza strains A/WSN/33 (H1N1) and incubated for 20 h at 37° C., 5% CO2. The cell culture supernatant was aspirated off and 50 μL 25 μM 2′-(4-Methylumbelliferyl)-a-D-N-acetyl neuraminic acid (MUNANA, Sigma-Aldrich) dissolved in 33 mM MES, pH 6.5 (Emerald Biosystems, Bainbridge Island, WA) was added to the cells. After incubation for 45 min at 30° C., reactions were stopped by addition of 150 μl stop solution (100 mM glycine, pH 10.5, 25% ethanol, all Sigma-Aldrich). Fluorescence was measured with excitation and emission filters of 355 and 460 nm, respectively, on a Victor X3 multi-label plate reader (Perkin Elmer, Waltham, MA). Cytotoxicity of uninfected parallel cultures was determined by addition of 100 μL CellTiter-Glo® reagent (Promega, Madison, WI), and incubation for 10 min at room temperature. Luminescence was measured on a Victor X3 multi-label plate reader.

Each structure is given as a SMILES string.

Usually EC50 stands for the concentration needed to bring the measured effect to its halfway point. The low end stands for a more potent agent, the high end for a less potent agent.

In assay [1], `NC(=O)c1nsc([C@@H]2O[C@H](CO)[C@@H](O)[C@H]2O)n1` [Example 1, 5-((2R,3R,4S,5R)-3,4-Dihydroxy-5-(hydroxymethyl)tetrahydrofuran-2-yl)-1,2,4-thiadiazole-3-carboxamide] gave an EC50 of 1.35 µM.
Take `NC(=O)c1cc([C@@H]2O[C@H](CO)[C@@H](O)[C@H]2O)sn1` [Example 2, 5-((2R,3R,4S,5R)-3,4-Dihydroxy-5-(hydroxymethyl)tetrahydrofuran-2-yl)isothiazole-3-carboxamide]: the EC50 was 0.32 µM in assay [2] and 54.7 µM in assay [1].
The like results for `NC(=O)c1nc([C@@H]2O[C@H](CO)[C@@H](O)[C@H]2O)sc1F` [Example 3, 2-((2R,3R,4S,5R)-3,4-Dihydroxy-5-(hydroxymethyl)tetrahydrofuran-2-yl)-5-fluorothiazole-4-carboxamide] were, in that order, 10.1 µM and 40.7 µM.
With `CC(C)C(=O)OC[C@H]1O[C@@H](c2nc(C(N)=O)ns2)[C@H](O)[C@@H]1O` [Example 4, ((2R,3S,4R,5R)-5-(3-Carbamoyl-1,2,4-thiadiazol-5-yl)-3,4-dihydroxytetrahydrofuran-2-yl)methyl isobutyrate], the response in assay [1] was half-maximal at 15.1 µM (EC50).
On to `CC(C)OC(=O)OCOP(=O)(OCOC(=O)OC(C)C)OC[C@H]1O[C@@H](c2nc(C(N)=O)ns2)[C@H](O)[C@@H]1O` [Example 6], for which the EC50 in assay [2] came to 1.85 µM; in assay [1], 4.66 µM.
As to `CC(C)[C@H](N)C(=O)OC[C@H]1O[C@@H](c2nc(C(N)=O)ns2)[C@H](O)[C@@H]1O` [Example 7, ((2R,3S,4R,5R)-5-(3-Carbamoyl-1,2,4-thiadiazol-5-yl)-3,4-dihydroxytetrahydrofuran-2-yl)methyl valinate], the EC50 in assay [1] stood at 1.35 µM. This counts as single-digit micromolar.

Source of the values: US20230365608A1 (priority 2019, published 2023).
